Patent US8003613B2, “Methods and compositions for inducing apoptosis” (University of Florida Research Foundation, Inc., priority 2003, dated 2011)
Read-outs that look alike come from different tables or passages of the source. Where no end group is shown, it is not given here.

What was measured:
VEGFR-3 = settings: no method given; cited from earlier work
[1] = system: BT474, BT20, and MCF7 breast cancer cells; assay: Displacement of FAK from focal adhesions, rounding and detachment in breast cancer cells; assay type: cell-based, human; settings: peptide coupled to TAT-FITC
Method: (§1) Visualization and penetration of Peptide-35 into breast cancer cells was accomplished by coupling the peptide to FITC and using a TAT penetration sequence. Apoptosis was measured using the Elisa Plus cell death detection assay after cells were treated with drug for 24 hours. Apoptosis was further confirmed by the Hoechst assay.
(§2) Peptide-35 and AV3 (SEQ ID NO: 3) were coupled to a TAT sequence (YGRKKRRQRRR; SEQ ID NO: 5) to allow cellular penetration. Peptide-35 was also coupled to FITC for visualization of the peptide inside cells. Anti-FAK, anti-GST, anti-VEGFR-3, and anti-tubulin antibodies were used for immunoprecipitation and western blotting.
(§3) Cells were plated onto coverslips in six-well culture plates in medium for 24 hours and stained with anti-FAK and anti-VEGFR-3 antibodies and visualized for co-localization.

[2] = system: MCF10A normal breast cells; assay: Detachment assay, MCF10A; assay type: cell-based, human; settings: 6 hours treatment
Method: (§4) Detached and attached cells after drug treatment for 6 hours cells were counted by hemocytometer. The percent detachment was calculated by dividing the number of detached cells by the total number of cells.

cancer cells = assay: Apoptosis in cancer cell lines; assay type: cell-based, human; settings: different cancer cell lines
Method: as §1
(§5) Cells were treated with drug for 24 hours and then harvested. Hoechst 33342 was added and the specimens were mounted on glass coverslips. The slides were viewed under the microscope for apoptotic nuclei. The percent apoptosis was calculated by dividing the number of apoptotic cells by the total number of cells (300).

FAK-CD = biological target: T1, FAK-CD (Homo sapiens, UniProt Q05397); assay: Phage display / phage overlay binding to FAK-CD; settings: Western blot/phage overlay
T1 construct: made in house
Excerpt: Peptides that bind FAK were isolated by phage display techniques. Baculovirus FAK-CD was the target protein and peptides were isolated from a phage library (New England Biolabs). After three rounds of panning, recovered phages were sequenced to identify potential peptides that bind FAK. Western-blot analysis and phage overlay were used to confirm the binding of these peptides to FAK. Peptide binding partners to FAK-CD were isolated by phage display. Baculoviral FAK-CD was used as a target and was coated to a plate and peptides were isolated from a phage library containing different 12-amino acids (New England Biolabs). After three rounds of panning, recovered phages were sequenced to identify potential peptides that bind FAK. […] Pure protein (4 μg) with loading buffer was boiled for 10 min and resolved by SDS-PAGE. Proteins were transferred to polyvinylidene difluoride membrane, probed with phage-35, and detected by chemiluminescence (Perkin-Elmer Life Sciences, Inc.).

normal MCF10A cells = assay: Displacement of FAK from focal adhesions, rounding and detachment in normal breast cells; assay type: cell-based, human; settings: peptide coupled to TAT-FITC
Method: as §1, §2, §3

[3] = system: BT474 breast cancer cells; assay: Detachment assay, BT474; assay type: cell-based, human; settings: 6 hours treatment
Method: as §4

[4] = system: BT474 breast cancer cells; assay: Apoptosis assay, BT474; assay type: cell-based, human; settings: 24 hours treatment, confirmed by Hoechst assay
Method: as §1, §5

[5] = system: MCF10A normal breast cells; assay: Apoptosis assay, MCF10A; assay type: cell-based, human
Method: as §1, §5

IMR neuroblastoma cells [6] = assay: Detachment assay, IMR neuroblastoma; assay type: cell-based; settings: IMR neuroblastoma cells with high VEGFR-3; peptide conjugated with TAT
Method: as §4

IMR neuroblastoma cells [7] = assay: Apoptosis assay, IMR neuroblastoma; assay type: cell-based; settings: IMR neuroblastoma cells with high VEGFR-3; peptide conjugated with TAT
Method: as §5

[8] = system: Mouse Fibroblast, FAK/FAK+; assay: Detachment assay, mouse fibroblasts; assay type: cell-based; settings: FAK+ compared with FAK-deficient
Method: BT474 cells were maintained in RPMI 1640 with 10% fetal bovine serum, 10 μg/ml insulin, and 2 mM L-glutamine. Mouse embryonic fibroblasts were maintained in DMEM with 10% FBS, Amphotericin B, and NEAA. HEK293 human embryonic kidney cells were maintained in DMEM with 10% FBS, and 2 mM L-glutamine. All cells were incubated at 37° C. in 5% CO2. Detached and attached cells after drug treatment for 6 hours cells were counted by hemocytometer. The percent detachment was calculated by dividing the number of detached cells by the total number of cells.

[9] = biological target: T2, chicken FAT, FAK C-terminal domain (Gallus gallus, UniProt Q00944); assay: NMR analysis of peptide binding to FAT domain; settings: preliminary NMR analysis
T2 sequence (Q00944 915-1046 limits assumed): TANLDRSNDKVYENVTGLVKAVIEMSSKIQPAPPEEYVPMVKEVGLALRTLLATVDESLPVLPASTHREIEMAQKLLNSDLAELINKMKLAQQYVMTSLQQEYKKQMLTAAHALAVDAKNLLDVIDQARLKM
Method: Structural analysis of VEGFR-3 peptide binding to the FAT domain of FAK is performed. Structural analysis is by nuclear magnetic resonance (NMR) spectroscopy. The solvent accessible area of the FAT-domain is predominantly hydrophilic with hydrophobic patches located on the helix 1-helix 4 face and the helix 2-helix 3 face. The hydrophobic patches may be involved in paxillin binding interactions. Results from these analyses indicate that NMR approaches will be successful in delineating detailed binding interactions between the inhibitor peptide and the FAT domain.
The site of peptide binding and is determined and specificity of binding is analyzed. Different scrambled peptides are synthesized to analyze the specificity of NMR assay. Different mutant peptides are synthesized to determine specific amino-acids involved in this interaction.

T1 sequence (Q05397 693-1052 limits assumed): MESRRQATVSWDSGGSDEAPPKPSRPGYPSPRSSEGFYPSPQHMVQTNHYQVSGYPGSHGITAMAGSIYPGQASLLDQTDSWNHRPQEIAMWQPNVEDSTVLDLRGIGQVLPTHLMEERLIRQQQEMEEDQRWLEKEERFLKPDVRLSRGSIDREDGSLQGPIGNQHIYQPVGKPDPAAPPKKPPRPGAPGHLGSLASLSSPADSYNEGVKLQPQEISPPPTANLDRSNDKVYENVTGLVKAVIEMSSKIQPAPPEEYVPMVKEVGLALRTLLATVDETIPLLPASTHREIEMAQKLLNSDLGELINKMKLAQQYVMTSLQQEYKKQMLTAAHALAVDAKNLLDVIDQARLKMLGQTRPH

## CC(C)(C)n1nc(-c2ccc(Cl)cc2)c2c(N)ncnc21 [PP2]
VEGFR-3
  inhibition of VEGFR-3 phosphorylation: inhibited

## HPWQWTISWPQW (listed as Homo sapiens) [scrambled peptide 35, control peptide, scrambled peptide 35, reference compound]
[1]
  displacement of FAK from focal adhesions, degradation of FAK, rounding, detachment: not
[2]
  detachment: minimal detachment
Cancer cells
  apoptosis (with detachment / loss of focal adhesions) in cancer cells: not observed

## WHWQWTPWSIQP (also: TAT and FITC conjugated; listed as Homo sapiens) [Peptide-35, coupled to TAT (and FITC) for cell penetration]
FAK-CD
  binding to FAK-CD (C-terminal part of FAK): binds to specific sequences of FAK-CD
FAK-CD; listed as peptide 35
  binding to FAK-CD (C-terminal part of FAK): binds to the C-terminal part of FAK and FAT domain
[1]
  displacement of FAK from focal adhesions, degradation of FAK, rounding, detachment: cause displacement of FAK from focal adhesions, degradation of FAK, rounding, and detachment
[1]; listed as peptide-35
  displacement of FAK from focal adhesions, degradation of FAK, rounding, detachment: caused displacement of FAK from focal adhesions
Normal MCF10A cells
  displacement of FAK from focal adhesions, degradation of FAK, rounding, detachment: not in normal MCF10A cells
Normal MCF10A cells; listed as peptide-35
  displacement of FAK from focal adhesions, degradation of FAK, rounding, detachment: not in normal MCF10A breast cells
[3]
  detachment: caused detachment
[3]; listed as peptide-35
  detachment: higher level of detachment
[2]
  detachment: not in MCF10A normal breast cells
[2]; listed as peptide-35
  detachment: minimal detachment
[4]
  apoptosis: caused detachment and apoptosis
[4]; listed as peptide-35
  apoptosis: higher level of apoptosis
[5]
  apoptosis: not in MCF10A normal breast cells
[5]; listed as peptide 35
  apoptosis: not observed
Cancer cells
  apoptosis (with detachment / loss of focal adhesions) in cancer cells: caused loss of focal adhesions and apoptosis
Cancer cells; listed as peptide 35
  apoptosis (with detachment / loss of focal adhesions) in cancer cells: induces detachment and apoptosis

## WHWRPWTPCKMF (also: TAT peptide conjugated; listed as Homo sapiens) [AV3, synthesized peptide homologous to twelve amino-acids of VEGFR-3; conjugated with TAT peptide for penetration into cells]
[5]
  apoptosis: not observed
IMR neuroblastoma cells [6]
  detachment: increased detachment
IMR neuroblastoma cells [7]
  apoptosis: increased detachment and apoptosis
[8]
  detachment: Mouse Fibroblast, FAK/FAK+. Greater
[9]
  binding to FAT domain by NMR: detected binding
Cancer cells
  apoptosis (with detachment / loss of focal adhesions) in cancer cells: induces detachment and apoptosis
Cancer cells; listed as VEGFR-3 (AV-3) peptide
  apoptosis (with detachment / loss of focal adhesions) in cancer cells: caused apoptosis in cancer cells similar to peptide 35
